According to ChEMBL document CHEMBL1201862, “PubChem BioAssay data set” (2004):
The source made the active and inactive calls.

Columns and labels:
Cytochrome P450 2C9 = Cytochrome P450 2C9 (Homo sapiens, UniProt P11712)
Cytochrome P450 3A4 = Cytochrome P450 3A4 (Homo sapiens, UniProt P08684);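 note: CYP3A4 tested as one member of a cytochrome P450 panel screen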
[1] = growth suppression of beta-catenin-knockout colon cells, dose response, cell-based, HCT116, human colon tumor (AID 1045); assay type: functional;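 note: HCT116 colon tumor cells with beta catenin knocked out; cells exposed to compound for 60 hours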
[2] = growth suppression of PTEN-null colon cells, dose response, cell-based, HCT116 PTEN knockout (AID 1047); assay type: functional;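 note: HCT116 colon tumor cells with PTEN knocked out; cells exposed to compound for 60 hours before readout; potency for loss of cell viability measured by luminescence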
Aminopeptidase N = biological target: T1, Aminopeptidase N (Plasmodium falciparum FcB1/Columbia, UniProt O96935); assay: P. falciparum M1AAP inhibitors, biochemical, fluorogenic H-Leu-NHMec substrate, 1536-well (AID 1445); parameters: species or system Plasmodium falciparum 3D7, 3D7
T1 sequence (O96935 whole entry): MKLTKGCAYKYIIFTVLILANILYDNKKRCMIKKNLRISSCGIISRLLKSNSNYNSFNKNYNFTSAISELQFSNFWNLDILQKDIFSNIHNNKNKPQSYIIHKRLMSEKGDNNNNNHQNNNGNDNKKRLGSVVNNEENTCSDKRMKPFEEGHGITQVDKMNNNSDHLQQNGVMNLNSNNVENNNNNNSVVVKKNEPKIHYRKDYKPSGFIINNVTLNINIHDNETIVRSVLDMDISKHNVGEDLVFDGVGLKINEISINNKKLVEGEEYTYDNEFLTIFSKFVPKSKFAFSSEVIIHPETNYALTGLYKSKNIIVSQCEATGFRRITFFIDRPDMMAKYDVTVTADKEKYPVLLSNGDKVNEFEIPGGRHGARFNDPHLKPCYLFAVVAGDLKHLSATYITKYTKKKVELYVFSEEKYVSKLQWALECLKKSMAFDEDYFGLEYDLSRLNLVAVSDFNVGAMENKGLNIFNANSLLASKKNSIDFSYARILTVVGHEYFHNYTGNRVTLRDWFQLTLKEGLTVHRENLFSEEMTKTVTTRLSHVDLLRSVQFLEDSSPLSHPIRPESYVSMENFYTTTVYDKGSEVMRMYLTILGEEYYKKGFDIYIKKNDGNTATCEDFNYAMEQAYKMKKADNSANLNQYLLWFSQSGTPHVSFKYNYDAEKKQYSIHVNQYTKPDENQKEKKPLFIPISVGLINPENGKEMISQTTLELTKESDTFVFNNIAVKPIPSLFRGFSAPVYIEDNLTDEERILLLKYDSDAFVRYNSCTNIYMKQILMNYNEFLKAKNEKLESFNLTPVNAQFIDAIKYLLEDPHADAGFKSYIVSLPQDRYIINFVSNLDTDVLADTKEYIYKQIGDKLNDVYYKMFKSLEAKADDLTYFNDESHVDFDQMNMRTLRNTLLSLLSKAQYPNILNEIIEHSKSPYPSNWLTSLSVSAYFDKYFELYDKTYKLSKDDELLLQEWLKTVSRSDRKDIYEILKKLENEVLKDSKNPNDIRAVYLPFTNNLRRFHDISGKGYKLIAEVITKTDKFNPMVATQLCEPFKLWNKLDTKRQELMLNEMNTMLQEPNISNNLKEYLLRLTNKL

Cytochrome P450 2C19 = Cytochrome P450 2C19 (Homo sapiens, UniProt P33261); assay: Cytochrome panel assay with activity outcomes. Panel member name: p450-cyp2c19 Compounds with AC50 equal or less than 10 uM are considered active; assay type: functional; details: read-out: AC50
Cytochrome P450 2D6 = Cytochrome P450 2D6 (Homo sapiens, UniProt P10635);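 note: CYP2D6 member of a cytochrome P450 panel assay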
Cytochrome P450 1A2 = biological target: T2, Cytochrome P450 1A2 (Homo sapiens, UniProt P05177);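 note: PubChem cytochrome P450 panel assay, CYP1A2 panel member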
T2 sequence (P05177 whole entry): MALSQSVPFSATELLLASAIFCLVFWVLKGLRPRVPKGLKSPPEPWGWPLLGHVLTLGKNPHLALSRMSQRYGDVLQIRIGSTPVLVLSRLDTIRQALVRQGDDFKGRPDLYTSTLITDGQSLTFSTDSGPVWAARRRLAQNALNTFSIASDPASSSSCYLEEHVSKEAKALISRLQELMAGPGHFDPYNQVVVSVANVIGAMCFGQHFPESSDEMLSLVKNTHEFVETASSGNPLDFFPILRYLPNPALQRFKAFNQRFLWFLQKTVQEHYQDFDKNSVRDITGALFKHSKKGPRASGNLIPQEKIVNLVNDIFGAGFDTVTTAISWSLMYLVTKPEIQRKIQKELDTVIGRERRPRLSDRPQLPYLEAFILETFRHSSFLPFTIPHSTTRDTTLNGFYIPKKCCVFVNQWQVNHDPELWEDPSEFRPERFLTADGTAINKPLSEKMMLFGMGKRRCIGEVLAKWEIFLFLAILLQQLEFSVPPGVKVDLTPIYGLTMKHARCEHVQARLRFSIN

Chain of Cytochrome P450 3A4 (P08684 whole entry): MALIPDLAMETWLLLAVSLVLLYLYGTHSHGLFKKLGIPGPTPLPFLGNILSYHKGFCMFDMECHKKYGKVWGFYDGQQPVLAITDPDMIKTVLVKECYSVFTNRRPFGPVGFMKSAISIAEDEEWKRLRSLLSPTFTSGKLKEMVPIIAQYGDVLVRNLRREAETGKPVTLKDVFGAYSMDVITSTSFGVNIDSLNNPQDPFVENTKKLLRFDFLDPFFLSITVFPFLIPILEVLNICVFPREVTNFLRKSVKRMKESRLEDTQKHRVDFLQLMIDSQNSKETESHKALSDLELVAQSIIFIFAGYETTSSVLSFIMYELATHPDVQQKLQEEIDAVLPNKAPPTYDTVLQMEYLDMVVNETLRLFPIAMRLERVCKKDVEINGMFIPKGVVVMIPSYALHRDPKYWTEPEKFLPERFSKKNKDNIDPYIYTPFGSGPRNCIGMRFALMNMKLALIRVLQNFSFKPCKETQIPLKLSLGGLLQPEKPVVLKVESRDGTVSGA
Chain of Cytochrome P450 2C9 (P11712 whole entry): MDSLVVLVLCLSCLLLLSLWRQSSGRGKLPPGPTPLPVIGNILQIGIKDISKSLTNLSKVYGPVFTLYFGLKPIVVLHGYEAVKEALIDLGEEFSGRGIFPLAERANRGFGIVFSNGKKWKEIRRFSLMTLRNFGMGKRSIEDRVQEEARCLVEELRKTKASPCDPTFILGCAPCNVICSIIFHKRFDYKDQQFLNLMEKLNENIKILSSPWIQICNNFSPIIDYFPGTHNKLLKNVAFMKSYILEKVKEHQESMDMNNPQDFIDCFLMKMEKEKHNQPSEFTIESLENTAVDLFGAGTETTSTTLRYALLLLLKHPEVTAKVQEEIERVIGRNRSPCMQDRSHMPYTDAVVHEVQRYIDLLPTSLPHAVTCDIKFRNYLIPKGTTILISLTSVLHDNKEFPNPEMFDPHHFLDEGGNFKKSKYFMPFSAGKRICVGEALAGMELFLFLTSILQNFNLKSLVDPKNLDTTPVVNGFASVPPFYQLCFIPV
Chain of Cytochrome P450 2C19 (P33261 whole entry): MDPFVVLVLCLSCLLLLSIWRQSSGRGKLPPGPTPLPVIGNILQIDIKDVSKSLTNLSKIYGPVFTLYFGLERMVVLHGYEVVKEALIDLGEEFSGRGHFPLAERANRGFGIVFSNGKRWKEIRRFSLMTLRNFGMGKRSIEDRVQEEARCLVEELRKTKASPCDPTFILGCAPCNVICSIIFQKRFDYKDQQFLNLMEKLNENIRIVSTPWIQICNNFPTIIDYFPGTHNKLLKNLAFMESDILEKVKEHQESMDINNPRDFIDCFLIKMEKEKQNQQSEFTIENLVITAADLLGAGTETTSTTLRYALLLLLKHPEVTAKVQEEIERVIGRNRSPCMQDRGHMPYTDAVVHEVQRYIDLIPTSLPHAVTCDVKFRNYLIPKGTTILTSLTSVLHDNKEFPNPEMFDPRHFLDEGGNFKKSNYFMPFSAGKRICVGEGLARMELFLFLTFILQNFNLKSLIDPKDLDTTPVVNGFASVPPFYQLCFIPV
Chain of Cytochrome P450 2D6 (P10635 whole entry): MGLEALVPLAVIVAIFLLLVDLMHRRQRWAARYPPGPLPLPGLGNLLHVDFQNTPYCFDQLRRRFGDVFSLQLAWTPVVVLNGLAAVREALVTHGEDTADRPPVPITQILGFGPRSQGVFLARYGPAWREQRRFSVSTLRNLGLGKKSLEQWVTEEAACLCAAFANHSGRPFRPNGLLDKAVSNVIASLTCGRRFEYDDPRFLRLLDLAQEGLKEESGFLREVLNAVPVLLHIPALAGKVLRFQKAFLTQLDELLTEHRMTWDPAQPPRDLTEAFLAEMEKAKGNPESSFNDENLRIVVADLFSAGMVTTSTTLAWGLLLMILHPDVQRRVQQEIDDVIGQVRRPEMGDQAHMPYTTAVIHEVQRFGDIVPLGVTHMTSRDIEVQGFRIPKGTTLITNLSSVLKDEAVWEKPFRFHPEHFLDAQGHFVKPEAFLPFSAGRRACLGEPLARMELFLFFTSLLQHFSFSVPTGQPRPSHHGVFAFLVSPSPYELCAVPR

AC50 (Cytochrome P450 2C9) | AC50 (Cytochrome P450 3A4) | Compound | also measured
inconclusive | 15.8 µM (inconclusive) | CCOCCCNC(=O)C1CCN(S(=O)(=O)N2CC(C)CC(C)C2)CC1 (centres undefined) | 
 |  | Cc1cccc(NS(=O)(=O)c2ccc3c(c2)Cc2cc(S(=O)(=O)Nc4cccc(C)c4C)ccc2-3)c1C | EC50 [1]: 10.2 µM (active); EC50 [2]: 11 µM (active)
 |  | CCOP(=O)(OCC)c1nc(/C=C/c2ccccc2)oc1NCc1ccc(OC)cc1 | IC50 (Aminopeptidase N): 128 µM (active)
inconclusive |  | COc1cccc(Nc2ncc3nc(-c4ccc(F)cc4)c(=O)n(CCC#N)c3n2)c1 | 
inconclusive | 11.2 µM (inconclusive) | COc1ccccc1CN1C(=O)c2ccncc2C1=O | 
inconclusive | 15.8 µM (inconclusive) | COc1ccc2c(c1[N+](=O)[O-])CCC/C2=N/OC(=O)c1ccccc1SC | 
inconclusive |  | O=C(N/N=C\c1ccc2c(c1)CCC2)c1ccccc1O | AC50 (Cytochrome P450 2C19): 0.251 µM (inconclusive); AC50 (Cytochrome P450 2D6): 5.01 µM (inconclusive)
inconclusive |  | O=C(C[S+]([O-])c1cccc(C(F)(F)F)c1)Nc1ccccc1Cl (centres undefined) | AC50 (Cytochrome P450 1A2): 15.8 µM (inconclusive)
 |  | C=C(C(=O)c1ccccc1)C(C)CC(=O)c1ccccc1 (centres undefined) | EC50 [1]: 4.74 µM (active); EC50 [2]: 5.17 µM (active)
 |  | O=C(CN1CCC(NC(=O)c2cccc(F)c2)CC1)NCc1cccs1 | IC50 (Aminopeptidase N): 22.6 µM (active)
inconclusive |  | COc1ccc(-c2nnc(SCc3cccc(C)c3)n2N)cc1 | 
inconclusive |  | CN(C)S(=O)(=O)c1ccc(NC(=O)c2cc(F)c(F)cc2Cl)cc1 | AC50 (Cytochrome P450 2C19): 17.8 µM (inconclusive)
inconclusive | 28.2 µM (inconclusive) | Cc1ccc(OCCCOc2cccc3cccnc23)cc1C | AC50 (Cytochrome P450 2D6): 17.8 µM (inconclusive)
